# Experimental data taken from patent US8912144B2, “Method for treating stroke via administration of NEP1-40 and inosine” (Children's Medical Center Corporation, priority 2003, dated 2014).
# Tested on: corticospinal neurons (CSNs/CSMNs)
# Test: Laser-capture microdissection and Illumina microarray gene expression in corticospinal neurons contralateral to stroke
# Assay type: in vivo, rat
# Description: In a separate group of animals (n=20), layer V pyramidal cells of the sensorimotor cortex were retrogradely labeled by injecting Alexa-Fluor-488-conjugated cholera toxin B subunit (CTB; 300 U/μl in sterile saline) into the cervical spinal cord. For this, animals were anesthetized with a combination of ketamine and Domitor (medetomidine) and a laminectomy was performed at the cervical level of the spinal cord (C2-C4). CTB was stereotaxically delivered into four sites lateral to the corticospinal tract. Injections (1.3 μl) were spaced 1 mm apart on the rostro-caudal axis, and were made 0.5 mm to the left and right of the midline. After allowing two weeks for transport of the tracer, we performed either sham surgery with no treatment (n=6) or stroke surgery combined with saline (n=3) or inosine (n=4) treatment as described above. Seven days later, animals were decapitated under transient gas anesthesia, brains were removed and rinsed in cold RPMI medium, and a tissue block containing the sensorimotor cortex was dissected and placed in OCT Tissue Tek Medium (Sakura Finetek USA Inc., CA) on dry ice within five minutes of death. Ten μm sections were cut onto precleaned Gold Seal RITE-ON glass slides (Gold Seal Prod-ucts, Portsmouth, N.H.), placed on dry ice, and rapidly stored at −80° C.
# Slide-mounted sections were thawed and dehydrated in RNAse-free ethanol gradients and xylene. Retro-gradely labeled, fluorescent cortical pyramidal cells in the undamaged hemisphere were individually captured using the Arcturus VERITAS system. ≧500 cells were collected from each animal and stored in Arcturus extraction buffer at −80° C. Total RNA was extracted from cells using the Micro-to-Midi TotalRNA Purification System (Invitrogen, Carlsbad Calif.) and double-amplified using the TargetAmp 2-Round Aminoallyl-aRNA Amplification kit 1.0 (Epicentre, Madison, Wis.). Amplified RNA was checked for average fragment length using the Agilent RNA 6000 Nano LabChip kit (Agilent Technologies, Santa Clara, Calif.) and then biotinylated and hybridized (1 μg) on Illumina RatRef-12 Expression BeadChip arrays (Illumina, San Diego Calif.), querying the expression of >22,000 RefSeq-curated rat transcripts. Results were obtained from a total of 15 samples representing 6 untreated controls, 4 animals with stroke treated with saline and 5 animals with stroke treated with inosine. Slides were processed and scanned with Illumina BeadStation platform according to the manufacturer protocol.
# Raw data was analyzed using Bioconductor packages (www.bioconductor.org, (Gentleman et al., 2004)). Low level quality-control analysis was performed using inter-array Pearson correlation and clustering based on variance. Two arrays (1 saline and 1 inosine-treated) were outliers and were excluded from the analysis. Data was normalized using quantile normalization, and analysis of differential expression was performed using a linear model fitting (LIMMA package, (Smyth, 2005). Differentially expressed genes were classified according to gene ontology using Bioconductor packages and online tools (DAVID, http://david.abcc.ncifcrf.gov/). Pathway analysis was carried out using Ingenuity Pathway Analysis (Ingenuity Systems, www.ingenuity.com).
smiles,measurement,setting,value
OC[C@H]1O[C@@H](n2cnc3c(O)ncnc32)[C@H](O)[C@@H]1O [inosine],"Signal Intensity, LOC500629","ILMN_61521, inosine after stroke",946
same,"Fold-Induction Stroke, ino vs. cntrl, LOC500137",ILMN_61607,0.58
same,"Signal Intensity, LOC500137","ILMN_61607, inosine after stroke",454
same,"Fold-Induction Stroke, ino vs. cntrl, Slc6a15",ILMN_61840,0.43
same,"Signal Intensity, Slc6a15","ILMN_61840, inosine after stroke",1093
same,"Fold-Induction Stroke, ino vs. cntrl, Bpnt1",ILMN_62095,0.70
same,"Signal Intensity, Bpnt1","ILMN_62095, inosine after stroke",283
same,Fold-induction CSMNs: Ftl1,"ILMN_62100, over and above inosine's effect of decreasing stroke-induced changes",1.74 fold
same,"Fold-Induction Stroke, ino vs. cntrl, Ddx1",ILMN_62325,0.57
same,"Signal Intensity, Ddx1","ILMN_62325, inosine after stroke",3553
same,Fold-induction CSMNs: Timp1,"ILMN_62559, over and above inosine's effect of decreasing stroke-induced changes",3.74 fold
same,"Fold-Induction Stroke, ino vs. cntrl, Rab18",ILMN_62620,0.76
same,"Signal Intensity, Rab18","ILMN_62620, inosine after stroke",2230
same,Fold-induction CSMNs: Eif4ebp1,"ILMN_62651, over and above inosine's effect of decreasing stroke-induced changes",1.86 fold
same,"Fold-Induction Stroke, ino vs. cntrl, Grinl1a",ILMN_62918,0.66
same,"Signal Intensity, Grinl1a","ILMN_62918, inosine after stroke",667
same,"Fold-Induction Stroke, ino vs. cntrl, Ppp1cb",ILMN_62999,0.42
same,"Signal Intensity, Ppp1cb","ILMN_62999, inosine after stroke",940
same,"Fold-Induction Stroke, ino vs. cntrl, LOC302559",ILMN_63077,0.89
same,"Signal Intensity, LOC302559","ILMN_63077, inosine after stroke",1031
same,"Fold-Induction Stroke, ino vs. cntrl, LOC366673",ILMN_63297,0.60
same,"Signal Intensity, LOC366673","ILMN_63297, inosine after stroke",298
same,"Fold-Induction Stroke, ino vs. cntrl, Rcn2",ILMN_63299,0.60
same,"Signal Intensity, Rcn2","ILMN_63299, inosine after stroke",442
same,"Fold-Induction Stroke, ino vs. cntrl, Gtl6",ILMN_63474,0.51
same,"Signal Intensity, Gtl6","ILMN_63474, inosine after stroke",302
same,"Fold-Induction, complement cascade gene C2","ILMN_63608, LCM-captured CSMNs contralateral a stroke",2.93 fold
same,"Fold-Induction Stroke, ino vs. cntrl, Cdc91l1",ILMN_63884,0.82
same,"Signal Intensity, Cdc91l1","ILMN_63884, inosine after stroke",529
same,"Fold-Induction Stroke, ino vs. cntrl, LOC306428",ILMN_63947,0.42
same,"Signal Intensity, LOC306428","ILMN_63947, inosine after stroke",507
same,"Fold-Induction Stroke, ino vs. cntrl, LOC500436",ILMN_64006,0.48
same,"Signal Intensity, LOC500436","ILMN_64006, inosine after stroke",1871
same,"Fold-Induction Stroke, ino vs. cntrl, LOC366411",ILMN_64007,0.51
same,"Signal Intensity, LOC366411","ILMN_64007, inosine after stroke",295
same,"Fold-Induction Stroke, ino vs. cntrl, Bcl10",ILMN_64237,0.84
same,"Signal Intensity, Bcl10","ILMN_64237, inosine after stroke",723
same,"Fold-Induction Stroke, ino vs. cntrl, Magi3",ILMN_64781,0.79
same,"Signal Intensity, Magi3","ILMN_64781, inosine after stroke",472
same,"Fold-Induction Stroke, ino vs. cntrl, Rtn4",ILMN_64945,0.57
same,"Signal Intensity, Rtn4","ILMN_64945, inosine after stroke",6518
same,"Fold-Induction Stroke, ino vs. cntrl, LOC500501",ILMN_65062,0.79
same,"Signal Intensity, LOC500501","ILMN_65062, inosine after stroke",958
same,"Fold-Induction Stroke, ino vs. cntrl, LOC287212",ILMN_65170,0.60
same,"Signal Intensity, LOC287212","ILMN_65170, inosine after stroke",1634
same,"Fold-Induction Stroke, ino vs. cntrl, LOC499328",ILMN_65309,0.53
same,"Signal Intensity, LOC499328","ILMN_65309, inosine after stroke",899
same,"Fold-Induction Stroke, ino vs. cntrl, Psmb5",ILMN_65450,0.65
same,"Signal Intensity, Psmb5","ILMN_65450, inosine after stroke",2709
same,"Fold-Induction Stroke, ino vs. cntrl, Hnrpf",ILMN_65510,0.86
same,"Signal Intensity, Hnrpf","ILMN_65510, inosine after stroke",1922
same,"Fold-Induction Stroke, ino vs. cntrl, Psma7",ILMN_65587,0.62
same,"Signal Intensity, Psma7","ILMN_65587, inosine after stroke",2058
same,"Fold-Induction Stroke, ino vs. cntrl, LOC497663",ILMN_65610,0.90
same,"Signal Intensity, LOC497663","ILMN_65610, inosine after stroke",416
same,"Fold-Induction Stroke, ino vs. cntrl, Pafah1b2",ILMN_65657,0.56
same,"Signal Intensity, Pafah1b2","ILMN_65657, inosine after stroke",411
same,"Fold-Induction Stroke, ino vs. cntrl, LOC294046",ILMN_65667,0.55
same,"Signal Intensity, LOC294046","ILMN_65667, inosine after stroke",2096
same,"Fold-Induction Stroke, ino vs. cntrl, Rchy1",ILMN_65668,0.77
same,"Signal Intensity, Rchy1","ILMN_65668, inosine after stroke",416
same,"Fold-Induction Stroke, ino vs. cntrl, LOC501181",ILMN_65702,0.49
same,"Signal Intensity, LOC501181","ILMN_65702, inosine after stroke",268
same,"Fold-Induction Stroke, ino vs. cntrl, Mal",ILMN_65814,0.40
same,"Signal Intensity, Mal","ILMN_65814, inosine after stroke",465
same,"Fold-Induction Stroke, ino vs. cntrl, MGC93921",ILMN_65993,0.69
same,"Signal Intensity, MGC93921","ILMN_65993, inosine after stroke",845
same,"Fold-Induction Stroke, ino vs. cntrl, LOC299179",ILMN_66036,0.76
same,"Signal Intensity, LOC299179","ILMN_66036, inosine after stroke",385
same,"Fold-Induction Stroke, ino vs. cntrl, LOC317232",ILMN_66272,0.70
same,"Signal Intensity, LOC317232","ILMN_66272, inosine after stroke",5211
same,"Fold-Induction Stroke, ino vs. cntrl, Spnb4",ILMN_66300,0.72
